Where “and” joins values, the source holds several entries; their conditions need not be identical. Equal values may be shown once. Read-outs that look alike come from different tables or passages of the source.
How the values were obtained:
[1] = Phosphatase activity of 6xHis-MBP-ΔN-HAB1 variants using p-NPP; assay type: biochemical; settings: error 1 SEM
Description: FIG. 8: Assessment of stabilized, inactivated 6×His-MBP-ΔN-HAB1 variants. Experiments were repeated on two separate days using independently generated batches of protein. Error bars indicate 1 SD of 3 measurements. Sets of mutations for each variant are noted in Table 7. […] Fluorescence here refers to streptavidin-phycoerythrin.
(§1) Except where noted, all proteins were expressed as N-terminal 6×His-MBP fusions primarily using the medium and method as described in ref. 17. For crystallographic structures, PYL2 and ΔN-HAB1^T+ were expressed in E. coli and purified as described previously 27. Assays for phosphatase activity and apparent Tm, measured via thermal challenge using yeast surface display were performed essentially as previously described 17.

[2] = Apparent Tm of HAB1 variants by thermal challenge and yeast surface display of PYR1^M; assay type: physicochemical; settings: YSD of PYR1^M, 500 nM ABA, 20 nM HAB1 variant
Protocol: as §1
Citrate-buffered saline was first prepared (CBS: 20 mM sodium citrate, 147 mM NaCl, 4.5 mM KCl). A portion of this CBS was removed and this aliquot was made into CBS^+++ by addition of freshly dissolved DTT to 1 mM, TCEP pH 8.0 to 1 mM, and MnCl2 to 10 mM followed by pH adjustment to 8.0 using 1 M sodium hydroxide. CBS^+++ was then sterile filtered and placed on ice. A further portion of CBS was removed and the above reagents were added in addition to bovine serum albumin at 0.2% w/v to produce CBSFF^+++, followed by adjustment of pH to 8.0 with 1 M sodium hydroxide and the solution was again sterile filtered and placed on ice. The remainder (and bulk) of the CBS was used to produce CBSF by addition of 0.1% w/v BSA with adjustment of pH to 8.0 using 1 M sodium hydroxide, and this solution was also sterile filtered, and 25 mL were retained at room temperature, with the bulk of the solution transferred to ice.
Determination of apparent Tm was performed using thermal melt. 130 AL of the ice-cold ammonium sulfate precipitates of HAB variants MBP-636 (“WT”), ΔN-HAB1^T+, MBP-724, MBP-725, and MBP-726 were pelleted in a microcentrifuge for 5 minutes at 17,000 g.
The supernatant was removed by pipette, discarded, and the pellet resuspended in an equivalent volume of ice-cold CBS^+++. Zeba™ spin desalting columns (Thermo) were equilibrated with CBS^+++ and the resuspended HABs were desalted and placed on ice. Each HAB was diluted to 400 nM concentration in CBS^+++ and aliquoted into PCR tubes at a 50 μL volume. These tubes were distributed into the blocks of a pair of Eppendorf Mastercycler X50i thermocyclers programmed for a thermal gradient as follows (in ° C.): (Machine #1 Gradient 30.0 to 60.0-30.0, 35.4, 39.3, 46.8, 50.6, 54.5, 60.0, Machine #2 Gradient 65.0 to 95.0-65.0, 70.4). The HAB aliquots were held at these temperatures for 30 minutes, followed by cooling to 4° C. in the thermocycler blocks. Once the aliquots had cooled, they were transferred to racks on ice and SO AL of CBSFF^+++ was added, such that each HAB was now at a concentration of 200 nM (10X) in CBSF^+++. The heat treated HAB aliquots were left on ice until the remainder of the labeling reactions were set up, about 1 hour. Labeling reactions were performed, measured, and analyzed as described previously (Steiner et al. 2020).

[3] = system: PYR1 mutant receptors (ligand-dependent binding to HAB1); assay: Yeast two-hybrid screens and optimization for organophosphate sensors; assay type: cell-based, Arabidopsis
Protocol: Surviving cells were collected and used in subsequent positive selections for ligand-responsive receptors on SD,-Leu,-Trp,-Ura media supplemented with a specific test chemical (100 μM) for responsiveness to any of the 10-member panel of organophosphate compounds: diazinon, pirimiphos-methyl, azinphos-ethyl, dimethoate, chlorfenvinphos, disulfoton, parathion-methyl, bromophos-methyl, malathion, and monocrotophos; all compounds were purchased form (Sigma-Aldrich). Isolated colonies were tested by regrowth on ligand-containing media and by dose response using X-gal staining and Sanger sequenced (see FIG. 13a-d).
Recombination-based mutagenesis of hit receptors was used to generate subsequent molecular diversity for selection-based optimization experiments, using the same general strategy across all scaffolds utilized. […] The resulting shuffled DNA fragments were cloned into pBD, transformed into E. coli, colonies collected, and plasmids extracted.

[4] = target: T1, PYR1^M/ΔN-HAB1^T+ (Arabidopsis thaliana, UniProt O49686, H60P/N90S); assay: PYR1 ELISA-like plate assay, immobilized PYR1^M with biotinylated ΔN-HAB1^T+; assay type: binding; settings: for Amax [AU 450 nm]: global parameter
T1 construct: made in house; host or cells: E. coli
Protocol: PYR1 was immobilized overnight in clear plates, blocked with KPL milk diluent in buffer CBS ^17 (CBSM). All binding reactions were performed using CBSM. Detection was performed via binding a streptavidin-HRP conjugate to biotinylated ΔN-HAB1^T+ followed by incubation with a commercial TMB reagent. Lower limits of detection (LODs) were determined by linear regression of the response data in the low linear range using the formula LOD=3σy/m, where m is the slope of the response line and σy is the standard error of the y intercept using data combined from biological replicates.
Unconjugated 6×His-MBP-PYR1 variants were immobilized to Microlon clear plates (655081) using 100 μL of CBS without pH modification, at a protein concentration of 100 μg mL^−1, or 1.57 AM at 4° C. overnight. Wells assigned as no PYR controls received only CBS. Plates were sealed using Microseal B adhesive sealers (BioRad MSB-1001). The following day, the solutions were decanted by flicking and all wells were washed twice with 300 μL of CBS. Blocking was performed using 300 μL of KPL milk diluent/concentrate (SeraCare 5140-0011) diluted 1:20 according to manufacturer's protocol, hereafter referred to as CBSM, incubated at room temperature for 2 hours, during which time all other components of the assays were diluted and assembled in 96 well PCR plates (Biorad HSP9601). Binding reactions were assembled from 88 μL of CBSM, 2 AL of 50× concentrate of ligand, dissolved in anhydrous ethanol for ABA, or anhydrous DMSO for all other compounds, with 10 μL of HAB to be added. Blocked plates were decanted by flicking and were washed twice with 300 μL of CBSM, followed by vigorous tamping on a pad of paper towels. The sole exception to the pre-assembly was biotinylated ΔN-HAB1^T+, where 130 AL of ammonium sulfate precipitate was pelleted at 17,000 g for 10 minutes, and the supernatant removed. The pellet was stored on ice until the blocked and washed plates were ready to receive the binding reactions. ΔN-HAB1^T+ was exchanged into CBSM with 1 mM DTT and 1 mM TCEP (CBSM++) using Zeba™ spin desalting columns (Thermo) were equilibrated with CBSM++. ΔN-HAB1^T+ was diluted to 10× the final binding reaction concentration and was immediately added to the pre-assembled assays in PCR plates, which were mixed by pipetting and transferred to the washed, blocked Microlon plates. Microlon plates were transferred to a plate shaker (Heidolph Titramax 1000) for 30 minutes at room temperature with shaking at 800 rpm. Plates were decanted by flicking and were washed three times with 300 μL of CBSM, followed by vigorous tamping on a pad of paper towels. Detection was enabled by addition of 100 μL of streptavidin-horseradish peroxidase (Thermo, SA10001), diluted 1:25,000 into CBSM, incubated in the above plate shaker for 10 minutes. This was decanted by flicking and washed three times with 300 AL of CBSM and by vigorous tamping on a pad of paper towels. Bound HAB was detected through addition of 50 μL 1-Step™ Ultra TMB-ELISA Substrate Solution (Thermo, 34028), incubated in the above plate shaker for 15 minutes (PYR1^M(N90S/H60P) with ABA, PYR1 ^WIN-M and PYR1^4F-M. in specificity assays to avoid overdevelopment of positive control), or for 30 minutes (PYR1^N90S/MANDI with mandipropamid, and PYR1^WIN-M and PYR1^4F-M under ligand titrations). TMB development was quenched by addition of 50 μL of 2M sulfuric acid and plates were read at 450 nm using a Biotek Synergy H1 Hybrid multimode plate reader. Estimates of Kd,eff were performed using Graphpad Prism 8.4.3 using the specific binding with Hill slope nonlinear regression function. Best fits for Kd1 and Kd2 were determined from global nonlinear fitting of the ELISA data using a custom script written in MatLab 2019b.

T1 sequence (O49686 whole entry H60P/N90S, other chains not shown): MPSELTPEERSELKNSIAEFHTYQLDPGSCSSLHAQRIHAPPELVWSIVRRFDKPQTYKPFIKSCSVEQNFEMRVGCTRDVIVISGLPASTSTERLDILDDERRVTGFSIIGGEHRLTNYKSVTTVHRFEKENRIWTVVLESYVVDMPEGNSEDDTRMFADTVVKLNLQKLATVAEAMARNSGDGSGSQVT

For “WT (636): 6 × His-MBP-ΔN-HAB1 (C186S, C274S)”, the “Phosphatase Activity (% of 636 at 50 mM p-NPP)” value ([1]; Biorep 1) was 100 ± 0.4%, the “Phosphatase Activity (% of 636 at 50 mM p-NPP)” value ([1]; Biorep 2) was 100 ± 0.8% and the “Tm, app (° C.)” value ([2]; Biorep 1) was 44.8 °C. For the same molecule, the “Tm, app (° C.)” value ([2]; Biorep 2) was 38.1 °C.

In the case of “725: 6 × His-MBP-ΔN-HAB1 (C186S, D199A, D204A, S209V, D287E, S292N, S342A, N377A, N439S) [compound 725]”, the “Phosphatase Activity (% of 636 at 50 mM p-NPP)” value ([1]; Biorep 1) is reported as 0.25 ± 0.01%, the “Phosphatase Activity (% of 636 at 50 mM p-NPP)” value ([1]; Biorep 2) is reported as 0.003 ± 0.004% and the “Tm, app (° C.)” value ([2]; Biorep 1) is reported as 50.7 °C. The “Tm, app (° C.)” value ([2]; Biorep 2) was 45.5 °C.

With `CCOP(=O)(OCC)O/C(=C\Cl)c1ccc(Cl)cc1Cl` [chlorfenvinphos] the “affinity of receptors obtained, but not lower” value ([3]; after optimization) was 10 µM.

With “724: stabilized dead 6 × His-MBP-ΔN-HAB1 variant with D243A instead of D204A [compound 724]” the “Phosphatase Activity (% of 636 at 50 mM p-NPP)” value ([1]; Biorep 1) was 0.22 ± 0.005%, the “Phosphatase Activity (% of 636 at 50 mM p-NPP)” value ([1]; Biorep 2) was 0.01 ± 0.001% and the “Tm, app (° C.)” value ([2]; Biorep 1) was 54.1 °C. The “Tm, app (° C.)” value ([2]; Biorep 2) was 44.8 °C.

In the case of `CNC(=O)CSP(=S)(OC)OC` [dimethoate], the “affinity of receptors obtained, but not lower” value [3] is reported as 10 µM.

For `CC1=CC(=O)CC(C)(C)[C@@]1(O)/C=C/C(C)=C\C(=O)O` [ABA, abscisic acid], the Kd ([4]; global nonlinear fit, PYR1^M/ABA/ΔN-HAB1^T+ system, Biorep 1, read-out: KD1) was 820 nM, the Kd ([4]; global nonlinear fit, PYR1^M/ABA/ΔN-HAB1^T+ system, Biorep 2, read-out: KD1) was 780 nM and the Kd ([4]; global nonlinear fit, PYR1^M/ABA/ΔN-HAB1^T+ system, Biorep 3, read-out: KD1) was 2090 nM. It also gave a Kd ([4]; global nonlinear fit, KD2 = binding constant of HAB1 variant (ΔN-HAB1^T+) for PYR1^M with ABA, Biorep 1, read-out: KD2) of 8 nM, a Kd ([4]; global nonlinear fit, KD2 = binding constant of HAB1 variant (ΔN-HAB1^T+) for PYR1^M with ABA, Biorep 2, read-out: KD2) of 4 nM and a Kd ([4]; global nonlinear fit, KD2 = binding constant of HAB1 variant (ΔN-HAB1^T+) for PYR1^M with ABA, Biorep 3, read-out: KD2) of 2 nM. The “Amax [AU 450 nm]” value ([4]; PYR1^M/ABA/ΔN-HAB1^T+ system, Biorep 1) was 2 AU 450 nm, the “Amax [AU 450 nm]” value ([4]; PYR1^M/ABA/ΔN-HAB1^T+ system, Biorep 2) was 2.8 AU 450 nm and the “Amax [AU 450 nm]” value ([4]; PYR1^M/ABA/ΔN-HAB1^T+ system, Biorep 3) was 2 AU 450 nm. The “lower limit of detection (LOD)” value ([4]; optimized ELISA-like system, PYR1^M) was 2 nM and 0.7 ng/mL and the Kd ([4]; optimized ELISA-like system, PYR1^M, read-out: effective Kd) was 9.7 nM.
